This test is described as follows: Stain removal study on stained hydroxyapatite (HAP) disks, CIELAB ΔE. Particulars: test solution in artificial human saliva, one hour treatment, 15 ml/min, 37° C.; FIG. 2. The procedure:
A flow system was assembled for staining samples of hydroxyapatite (HAP) disks using a staining solution. The staining solution was prepared from a mixture containing tea, coffee and porcine gastric mucin. The staining solution was circulated through the flow system at a rate of about 15 ml/min, and passed continuously over the HAP disks for about 96 hours at about 37° C. After 96 hours, the stained HAP disks were then placed in artificial human saliva (as prepared in Example 5) at a pH of about 7, and were then rinsed and allowed to dry. The HAP disks were segregated into 6 sample groups. Each of the HAP disks were measured to yield a baseline L*a*b stain score in accordance with the Commission International de L'Eclairage Laboratory (CIELAB) color scale. The CIELAB scale quantifies color according to 3 parameters, L* (lightness-darkness scale), a* (red-green chroma), and b* (yellow-blue chroma). In order to obtain reproducible readings, the stained HAP disks were allowed to air-dry at room temperature for about 2 hours before measurement is to be made. The baseline stain measurements were taken by making diffuse reflectance absorbance readings with a Minolta spectrophotometer. The absorbance readings over the entire visible color spectrum were obtained for each HAP disk. […] The overall change in stain level ΔE was determined for each of the treated HAP disks.

As for `CCCCCCCCCCCCCCCCCC(=O)[O-].[Na+]` [sodium stearate], the “stain removing activity (ΔE)” value was “least stain removing activity”.
Take `OC[C@H]1O[C@@H]2O[C@H]3[C@H](O)[C@@H](O)[C@@H](O[C@H]4[C@H](O)[C@@H](O)[C@@H](O[C@H]5[C@H](O)[C@@H](O)[C@@H](O[C@H]6[C@H](O)[C@@H](O)[C@@H](O[C@H]7[C@H](O)[C@@H](O)[C@@H](O[C@H]8[C@H](O)[C@@H](O)[C@@H](O[C@H]1[C@H](O)[C@H]2O)O[C@@H]8CO)O[C@@H]7CO)O[C@@H]6CO)O[C@@H]5CO)O[C@@H]4CO)O[C@@H]3CO` [β-cyclodextrin]: the “stain removing activity (ΔE)” value is reported as “least stain removing activity”.
